This note sets out measurements from patent US7517532B2, “Dihydroxypyridopyrazine-1,6-dione compounds useful as HIV integrase inhibitors” (Merck & Co., Inc., priority 2002, dated 2009).

The term IC95 denotes the point of the concentration-response curve where the effect stands at 95%. Read a low IC95 as greater potency.

The test system of the experiment is HIV. Briefly: Assay for inhibition of HIV replication (acute HIV infection of T-lymphoid cells). Type of experiment: cell-based. Particulars: Human immunodeficiency virus 1, T-lymphoid. On the procedure: Assay for Inhibition of HIV Replication
Assays for the inhibition of acute HIV infection of T-lymphoid cells were conducted in accordance with Vacca, J. P. et al., Proc. Natl. Acad. Sci. USA 1994, 91: 4096.
`CCOC[C@@H]1[C@@H]2[C@H]1n1c(c(O)c(O)cc1=O)C(=O)N2Cc1ccc(F)cc1` (racemic) [Example 42, (±)-1-(Ethoxymethyl)-2-(4-fluorobenzyl)-4,5-dihydroxy-1,1a,2,8a-tetrahydrocyclo-propa[e]pyrido[1,2-a]pyrazine-3,7-dione] had a concentration for an effect of 95% (IC95) of less than 1 µM.

In the case of `CCCOC[C@@H]1[C@@H]2[C@H]1n1c(c(O)c(O)cc1=O)C(=O)N2Cc1ccc(F)cc1` (racemic) [Example 43, (±)-1-(n-Propoxymethyl)-2-(4-fluorobenzyl)-4,5-dihydroxy-1,1a,2,8a-tetrahydrocyclo-propa[e]pyrido[1,2-a]pyrazine-3,7-dione], the IC95 was less than 1 µM.

As for `O=C1c2c(O)c(O)cc(=O)n2CCN1Cc1ccccc1` [Example 1, 2-Benzyl-8,9-dihydroxy-3,4-dihydro-2H-pyrido[1,2-a]pyrazine-1,6-dione], the IC95 is less than 5 µM.

`Cc1c(O)c(O)c2n(c1=O)CCN(Cc1ccc(F)cc1)C2=O` [Example 3, 2-(4-Fluorobenzyl)-8,9-dihydroxy-7-methyl-3,4-dihydro-2H-pyrido[1,2-a]pyrazine-1,6-dione]: the IC95 was less than 5 µM.

In the case of `O=C1c2c(O)c(O)c(Br)c(=O)n2CCN1Cc1ccc(F)cc1` [Example 4, 2-(4-Fluorobenzyl)-8,9-dihydroxy-7-bromo-3,4-dihydro-2H-pyrido[1,2-a]pyrazine-1,6-dione], the IC95 was less than 5 µM.

`O=C1c2c(O)c(O)c(I)c(=O)n2CCN1Cc1ccc(F)cc1` [Example 5, 2-(4-Fluorobenzyl)-8,9-dihydroxy-7-iodo-3,4-dihydro-2H-pyrido[1,2-a]pyrazine-1,6-dione] came in with an IC95 of less than 5 µM.

Turning to `O=C1c2c(O)c(O)cc(=O)n2CCN1Cc1ccc(Cl)cc1` [Example 7, 2-(4-Chlorobenzyl)-8,9-dihydroxy-3,4-dihydro-2H-pyrido[1,2-a]pyrazine-1,6-dione], the 95% effect concentration (IC95) was less than 5 µM.

The molecule `CN(C)Cc1c(O)c(O)c2n(c1=O)CCN(Cc1ccc(F)cc1)C2=O` [Example 13, 2-(4-Fluorobenzyl)-8,9-dihydroxy-7-[(dimethylamino)methyl]-3,4-dihydro-2H-pyrido[1,2-a]pyrazine-1,6-dione] returned an IC95 of less than 5 µM.

Consider `CC1CN(Cc2ccc(F)cc2)C(=O)c2c(O)c(O)cc(=O)n21` (stereo not drawn) [Example 16, 2-(4-Fluorobenzyl)-8,9-dihydroxy-4-methyl-3,4-dihydro-2H-pyrido[1,2-a]pyrazine-1,6-dione], for which the IC95 was less than 5 µM.

For `CC1(C)CN(Cc2ccc(F)cc2)C(=O)c2c(O)c(O)cc(=O)n21` [Example 17, 2-(4-Fluorobenzyl)-8,9-dihydroxy4,4dimethyl-3,4-dihydro-2H-pyrido[1,2-a]pyrazine-1,6-dione], the IC95 is less than 5 µM.

In turn, `CC1Cn2c(c(O)c(O)cc2=O)C(=O)N1Cc1ccc(F)cc1` (stereo not drawn) [Example 18, 2-(4-Fluorobenzyl)-8,9-dihydroxy-3-methyl-3,4-dihydro-2H-pyrido[1,2-a]pyrazine-1,6-dione] had an IC95 of less than 5 µM.

`O=c1c2c(O)c(O)c(CN3CCCCC3)c(=O)n2ccn1Cc1ccc(F)cc1` [Example 25, 2-(4-Fluorobenzyl)-8,9-dihydroxy-7-(piperidin-1-ylmethyl)-2H-pyrido[1,2-a]pyrazine-1,6-dione] had an IC95 of less than 1 µM.

For the molecule `CN1CCN(Cc2c(O)c(O)c3c(=O)n(Cc4ccc(F)cc4)ccn3c2=O)CC1=O` [Example 27, 2-(4-Fluorobenzyl)-8,9-dihydroxy-7-[(4-methyl-3-oxopiperazin-1-yl)methyl]-2H-pyrido[1,2-a]pyrazine-1,6-dione], the IC95 was less than 1 µM.

`O=c1c2c(O)c(O)c(CN3CCOCC3)c(=O)n2ccn1Cc1ccc(F)cc1` [Example 28, 2-(4-Fluorobenzyl)-8,9-dihydroxy-7-[(morpholin4yl)methyl]-2H-pyrido[1,2-a]pyrazine-1,6-dione] registered a 95% effect concentration (IC95) of less than 1 µM.

`O=c1c2c(O)c(O)c(CN3CCSCC3)c(=O)n2ccn1Cc1ccc(F)cc1` [Example 29, 2-(4-Fluorobenzyl)-8,9-dihydroxy-7-[(thiomorpholin-4-yl)methyl]-2H-pyrido[1,2-a]pyrazine-1,6-dione]: the IC95 was less than 1 µM.

For `CSc1cc(F)ccc1Cn1ccn2c(=O)cc(O)c(O)c2c1=O` [Example 30, 2-[4-Fluoro-2-(methylthio)benzyl)-8,9-dihydroxy-2H-pyrido[1,2-a]pyrazine-1,6-dione], the IC95 was less than 1 µM.

As to `CC(=O)N1CCCC(Cc2c(O)c(O)c3n(c2=O)CCN(Cc2ccc(F)cc2)C3=O)C1` (stereo not drawn) [Example 34, 7-[(1-Acetylpiperidin-3-yl)methyl]-2-(4-fluorobenzyl)-8,9-dihydroxy-3,4-dihydro-2H-pyrido[1,2-a]pyrazine-1,6-dione], the IC95 is less than 1 µM.

With `CC(=O)N1CCCCC1Cc1c(O)c(O)c2n(c1=O)CCN(Cc1ccc(F)cc1)C2=O` (stereo not drawn) [Example 35, 7-[(1-Acetylpiperidin-2-yl)methyl]-2-(4-fluorobenzyl)-8,9-dihydroxy-3,4-dihydro-2H-pyrido[1,2-a]pyrazine-1,6-dione], the IC95 was less than 1 µM.
